Data as given in US11814623B2, “Methods of treating a wound using epigenetic regulation” (University of Massachusetts, priority 2018, dated 2023).

Key:
[1] = test system: HSCs from db/db mice; assay: Intracellular ROS (DCF) in HSCs of db/db mice given NAC; assay type: in vivo, mouse; conditions: NAC 150 mg/kg/day via drinking water for 8 weeks, FIG. 6A
Description: 8-12 weeks old male C57BL/6J wild type (WT) and […] (db/db) mice were used in the studies. All mice were purchased from Jackson Laboratories and were maintained in mouse barrier facilities. Care and use of mice was in accordance with NIH guidelines and the Institutional Animal Care and Use Committee of the University of Massachusetts Medical School approved protocols. db/db and WT mice were fed standard chow diet (5.4 g/100 g diet, 0% cholesterol) and HFD mice were generated by feeding C57BL/6J mice a high fat diet (60% fat calories; Research Diet, New Brunswick, N.J.). N-acetylcysteine (NAC) was given for 8 weeks (150 mg/kg/day via drinking water. Whole bone marrow cells were flushed out from femurs and tibialis. Bone marrow cells were stained with antibodies for the identification of HSCs (c-Kit^+Scal^+lineage^-CD90.1^lo/-). The antibodies used were: c-Kit (1:50, eBioscience 12-1171, clone: 2B8), Sca-1 (1:50, eBioscience 11-5981, clone: D7), CD90.1 (1:50, eBioscience 45-0900, clone:[…]) and a lineage cocktail antibody (1:50, BD Bioscience 558074). As for the gating strategy for flow cytometry, we first gated on single, viable cells and eliminated any debris, dead cells and clumps or doublets. Next, gates were drawn on the c-Kitpositive/Scal-positive/lineage-negative/CD90.1^low-negative population for HSC sorting. […]

[2] = test system: bone marrow monocytes of db/db mice; assay: CD115+CD11b+ monocyte concentration in bone marrow by flow cytometry; assay type: in vivo, mouse; conditions: NAC 150 mg/kg/day via drinking water for 8 weeks, FIG. 6C
Description: 8-12 weeks old male C57BL/6J wild type (WT) and […] (db/db) mice were used in the studies. All mice were purchased from Jackson Laboratories and were maintained in mouse barrier facilities. Care and use of mice was in accordance with NIH guidelines and the Institutional Animal Care and Use Committee of the University of Massachusetts Medical School approved protocols. db/db and WT mice were fed standard chow diet (5.4 g/100 g diet, 0% cholesterol) and HFD mice were generated by feeding C57BL/6J mice a high fat diet (60% fat calories; Research Diet, New Brunswick, N.J.). N-acetylcysteine (NAC) was given for 8 weeks (150 mg/kg/day via drinking water.

[3] = test system: Dnmt1; assay: Dnmt1 expression in HSCs (qRT-PCR, Western blot); assay type: cell-based, mouse
Procedure: Quantification was performed using ImageJ software.
Total RNA was isolated using the mirVana miRNA isolation kit (Applied Biosystems). cDNA was synthesized using the QuantiMir RT Kit small RNA quantification system (SBI). qRT-PCR was performed as described previously. Mouse U6 was used as an endogenous control. The let-7d-3p mimic and inhibitor were purchased from Life Technologies (catalog numbers 4464066 and 4464084, respectively).

[4] = test system: Dnmt3a and DNMT3b; assay: Dnmt3a and Dnmt3b expression in db/db HSCs (qRT-PCR, Western blot); conditions: FIGS. 7E-F
[5] = test system: mouse Dnmt1 3′ UTR region; assay: Dnmt1 3' UTR luciferase reporter assay in HEK293T cells; assay type: cell-based; conditions: 48 h post-transfection, FIG. 8C
Procedure: (§1) HEK293T cells grown in 96-well plates were transfected with pmirGLO containing the Dnmt1 3′ UTR region that includes the let-7d-3p binding sites. The cells were co-transfected with let-7d-3p using Lipofectamine (Invitrogen). The Firefly and Renilla luciferase activities in the cell lysates were assayed with a Dual-Luciferase Reporter Assay System (Promega) at 48 h post-transfection. To generate the mutant variants, point mutations in the binding sites of let-7d-3p in the 3′-UTR region of Dnmt1 were introduced by PCR according to the site-directed mutagenesis protocol from Agilent. The two mutants that were generated are labeled “Dnmt1 M1” and “Dnmt1 M2”. The binding sequence of let-7d-3p in mouse Dnmt1 3′UTR is: […]

[6] = test system: Dnmt1 M1 and Dnmt1 M2 (mutated let-7d-3p binding sites in Dnmt1 3′ UTR); assay: Mutant Dnmt1 3' UTR luciferase reporter assay in HEK293T cells; assay type: cell-based, mouse; conditions: FIG. 8C
Procedure: as §1

[7] = test system: Notch1, PU.1 and Klf4 genes; assay: DNA methylation of Notch1, PU.1 and Klf4 by pyrosequencing; assay type: cell-based, mouse; conditions: db/db HSCs; FIG. 14A, FIG. 15, FIG. 16
Procedure: Genomic DNA was isolated by traditional phenol-chloroform extraction and isopropanol precipitation. DNA concentration was measured using a Nano Drop spectrophotometer. Around 500 ng genomic DNA were bisulfite converted by EZ DNA methylation-Gold kit following the manufacturer's instructions (Zymo Research). PCR amplification was performed using 2×HiFi Hotstart Uracil+ready mix PCR (Kapa Biosystems). PCR and pyrosequencing primer sets with one biotin-labeled primer were used to amplify the bisulfite converted DNA. Primers were designed using PyroMark Assay Design software version 2.0.1.15 (Qiagen). The size of the amplicons was 200 bp or less. Briefly, 5 μl master mix, […] of each primer, 20 ng genomic DNA and ultra-pure water to a final volume of 10 μl were mixed for each reaction and run at thermal cycling conditions: 95° C. for 3 min and then 50 cycles: 20 sec at 98° C.; 15 sec at the optimized primer-specific annealing temperature; 15 sec at 72° C. and a final extension for 1 min at 72° C. […] PyroGold reagents were used for the pyrosequencing reaction and the signal was analyzed using the PSQ 96MA system (Biotage, Uppsala, Sweden). Target CGs were evaluated by instrument software (PSQ96MA 2.1), which converts the pyrograms to numerical values for peak heights and calculates the methylation at each base as a C/T ratio.

[8] = test system: H3K9me2 and H3K9me3 at Klf4, PU.1 and Notch1 promoters; assay: ChIP-PCR of H3K9 histone methylation at Notch1, PU.1 and Klf4; assay type: cell-based, mouse; conditions: db/db HSCs; FIG. 17B and FIG. 18
Procedure: 1×10^6 HSCs were sorted and cross-linked with 1% formaldehyde at room temperature for 10 min, and the reaction was stopped by adding Glycine to a final concentration of 0.125M and incubating at room temperature for 5 min. Cross-linked cells were lysed in lysis buffer and sonicated to 200-500 bp fragments (Bioruptor, Diagenode). The sonicated chromatin was centrifuged at 4° C. for 5 min. The cross-linked DNA was immunoprecipitated with H3K9me3, H3K9me2 or H3K9Ac antibodies (Millipore, USA) overnight at 4° C. with rotation, DNA-Antibody complexes were bound to ChIP beads, pulled down, washed and then eluted from the beads. Following reversal of cross-linkage, purified DNA was used for quantitative PCR using ChIP PCR primers purchased from IDT (MA, USA). Immunoprecipitation efficiency was calculated by normalizing sample CT values against control IgG values and calculating ratios of sample CT values relative to input values.

CC(=O)N[C@@H](CS)C(=O)O [N-acetylcysteine]
oxidant stress in HSCs (DCF positive cells) [1]: reversed | monocyte concentration in bone marrow [2]: restored | expression of DNMT1 in db/db HSCs ([3]; db/db HSCs, compared with WT HSCs, FIGS. 7E-F): restored | mRNA or protein levels of Dnmt3a and DNMT3b [4]: did not change

let-7d-3p mimic: let-7d-3p mimic purchased from Life Technologies (catalog number 4464066); microRNA that binds the Dnmt1 3′ UTR (guide CUAUACGACCUGCUGCCUUUCU; chemistry not given here)
Dnmt1 expression in db/db HSCs ([3]; db/db HSCs transfected, FIGS. 8F-G): decreased | luciferase activity, intact 3′ UTR construct [5]: significantly repressed | luciferase activity, let-7d-3p binding sites in Dnmt1 3′ UTR mutated [6]: didn't affect | methylation of Notch1, PU.1, Klf4 [7]: decreased | histone methylation levels (H3K9me2, H3K9me3) [8]: decreased
